Experimental data published in ChEMBL document CHEMBL1201862, “PubChem BioAssay data set” (2004).
The source made the active and inactive calls.

What was measured:
[1] = target: T1, Sentrin-specific protease 8 (Homo sapiens, UniProt Q96LD8); format: functional;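 note: kinetic enzyme assay of SENP8 cleaving a Nedd8 protein substrate, dose-response confirmation of screening hits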
T1 sequence (Q96LD8 whole entry): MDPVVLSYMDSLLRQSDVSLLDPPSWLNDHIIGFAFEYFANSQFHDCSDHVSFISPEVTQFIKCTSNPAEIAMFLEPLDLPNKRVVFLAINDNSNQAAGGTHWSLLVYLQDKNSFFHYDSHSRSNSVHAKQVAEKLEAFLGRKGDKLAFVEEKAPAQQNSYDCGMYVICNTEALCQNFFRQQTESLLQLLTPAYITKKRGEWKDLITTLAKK

cells [2] = format: functional, cell-based
cells [3] = format: functional, cell-based; remark: listed apart in the source
[4] = target: Megakaryocyte-associated tyrosine-protein kinase (Homo sapiens, UniProt P42679); format: functional;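 note: affinity measured as one member of a kinase panel (Navigating the Kinome) against MATK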
[5] = target: Serine/threonine-protein kinase TBK1 (Homo sapiens, UniProt Q9UHD2); assay: Navigating the Kinome. Panel member name: TBK1; format: functional
[6] = target: Proto-oncogene tyrosine-protein kinase receptor Ret (Homo sapiens, UniProt P07949); format: functional;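 note: measured within a kinome-wide profiling panel, RET as the panel member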
[7] = target: Serine/threonine-protein kinase D2 (Homo sapiens, UniProt Q9BZL6); format: functional;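 note: measured against PRKD2 as one member of a kinome-wide kinase profiling panel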
SRSF protein kinase 1 = SRSF protein kinase 1 (Homo sapiens, UniProt Q96SB4); format: functional;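 note: measured as one member of a kinome-wide kinase profiling panel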
[8] = target: MAP kinase-activated protein kinase 2 (Homo sapiens, UniProt P49137); format: functional;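 note: measured as one member of a kinome-wide kinase panel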
[9] = target: Proto-oncogene tyrosine-protein kinase ROS (Homo sapiens, UniProt P08922); format: functional;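 note: ROS1 tested as one member of a kinome-wide kinase panel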
[10] = target: Protein kinase C gamma type (Homo sapiens, UniProt P05129); format: functional
[11] = target: Glycogen synthase kinase-3 alpha (Homo sapiens, UniProt P49840); format: functional;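 note: GSK3A result taken from a broad kinome-wide kinase panel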
[12] = target: Dual specificity tyrosine-phosphorylation-regulated kinase 3 (Homo sapiens, UniProt O43781); format: functional;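 note: measured as one member of a broad kinase panel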
[13] = target: Mitogen-activated protein kinase 1 (Homo sapiens, UniProt P28482); format: functional
[14] = target: Serine/threonine-protein kinase Nek4 (Homo sapiens, UniProt P51957); format: functional
[15] = target: Dual specificity tyrosine-phosphorylation-regulated kinase 1B (Homo sapiens, UniProt Q9Y463); assay: Navigating the Kinome. Panel member name: DYRK1B; format: functional
[16] = target: cAMP-dependent protein kinase catalytic subunit PRKX (Homo sapiens, UniProt P51817); format: functional
[17] = target: Tyrosine-protein kinase Fer (Homo sapiens, UniProt P16591); format: functional;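 note: FER tested as one member of a kinome panel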
[18] = target: Tyrosine-protein kinase Fyn (Homo sapiens, UniProt P06241); format: functional
[19] = target: 3-phosphoinositide-dependent protein kinase 1 (Homo sapiens, UniProt O15530); format: functional;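 note: value comes from the Navigating the Kinome panel, PDPK1 member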
[20] = target: Cyclin-dependent kinase 8 (Homo sapiens, UniProt P49336); assay: Navigating the Kinome. Panel member name: CDK8; format: functional
[21] = target: STE20-like serine/threonine-protein kinase (Homo sapiens, UniProt Q9H2G2); format: functional
[22] = target: Glycogen synthase kinase-3 beta (Homo sapiens, UniProt P49841); format: functional;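 note: value comes from a broad kinome profiling panel, with GSK3B as the panel member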
[23] = target: Cyclin-dependent kinase 9 (Homo sapiens, UniProt P50750); format: functional;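 note: value from the CDK9 entry of a kinome-spanning kinase panel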
[24] = target: BDNF/NT-3 growth factors receptor (Homo sapiens, UniProt Q16620); format: functional;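 note: NTRK2 measured as one member of a broad kinome-wide kinase profiling panel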
[25] = target: Macrophage colony-stimulating factor 1 receptor (Homo sapiens, UniProt P07333); format: functional;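 note: value comes from the Navigating the Kinome screening panel, CSF1R member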
[26] = target: Serine/threonine-protein kinase BRSK1 (Homo sapiens, UniProt Q8TDC3); format: functional;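 note: measured within a kinome-wide kinase panel, with the target listed as KIAA1811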
[27] = target: Serine/threonine-protein kinase 3 (Homo sapiens, UniProt Q13188); format: functional;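 note: measured as one member of a kinome-wide kinase panel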
[28] = target: T2, Neuropeptide Y receptor type 1 (Homo sapiens, UniProt P25929); assay: Fluorescence-based dose response cell-based high-throughput screening assay for agonists of NPY-Y1. [Related pubchem assays: 1697 (Screening assay (NPY-Y1 agonists).), 1359 (Screening assay (NPY-Y2 potentiators or agonists).), 1304 (Screening assay (NPY-Y1 potentiators or agonists).), 1704 (Screening assay (CNGC inhibitors).), 1791 (Summary AID.)]; format: functional
T2 sequence (P25929 whole entry): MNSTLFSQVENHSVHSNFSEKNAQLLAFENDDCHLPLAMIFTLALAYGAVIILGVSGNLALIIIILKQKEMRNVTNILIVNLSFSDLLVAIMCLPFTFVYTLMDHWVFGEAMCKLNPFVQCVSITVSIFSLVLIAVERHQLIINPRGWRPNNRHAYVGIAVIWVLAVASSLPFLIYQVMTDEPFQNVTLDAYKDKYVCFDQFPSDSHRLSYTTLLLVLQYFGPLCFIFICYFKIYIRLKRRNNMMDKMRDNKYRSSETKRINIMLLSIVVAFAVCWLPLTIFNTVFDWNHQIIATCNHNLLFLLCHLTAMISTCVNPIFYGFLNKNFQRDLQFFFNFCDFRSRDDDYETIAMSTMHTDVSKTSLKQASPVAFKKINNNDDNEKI

[29] = Counterscreen for AddAB inhibitors: absorbance-based bacterial cell-based high throughput dose response assay for inhibitors of bacterial viability. [Related pubchem assays (depositor defined):AID435030, AID449728, AID449731, AID488942, AID488955, AID488956]; format: functional
[30] = THP-1 cell cytotoxicity, dose response, cytotoxicity control for Vif-APOBEC3G degradation inhibitor project, THP-1 cells (AID 1117359); format: functional; conditions: Human immunodeficiency virus 1, THP-1

Sequence of MAP kinase-activated protein kinase 2 (P49137 whole entry): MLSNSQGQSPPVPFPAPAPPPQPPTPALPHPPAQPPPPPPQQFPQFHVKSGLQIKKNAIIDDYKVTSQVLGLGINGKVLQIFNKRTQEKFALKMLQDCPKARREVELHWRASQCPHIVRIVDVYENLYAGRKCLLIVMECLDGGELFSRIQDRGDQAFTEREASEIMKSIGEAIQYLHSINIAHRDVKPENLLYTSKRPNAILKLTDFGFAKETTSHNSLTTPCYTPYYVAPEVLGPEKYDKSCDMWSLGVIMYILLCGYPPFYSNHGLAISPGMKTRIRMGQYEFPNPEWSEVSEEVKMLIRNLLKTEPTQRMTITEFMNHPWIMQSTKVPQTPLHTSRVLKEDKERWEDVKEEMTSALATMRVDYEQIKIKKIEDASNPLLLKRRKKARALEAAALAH
Sequence of SRSF protein kinase 1 (Q96SB4 whole entry): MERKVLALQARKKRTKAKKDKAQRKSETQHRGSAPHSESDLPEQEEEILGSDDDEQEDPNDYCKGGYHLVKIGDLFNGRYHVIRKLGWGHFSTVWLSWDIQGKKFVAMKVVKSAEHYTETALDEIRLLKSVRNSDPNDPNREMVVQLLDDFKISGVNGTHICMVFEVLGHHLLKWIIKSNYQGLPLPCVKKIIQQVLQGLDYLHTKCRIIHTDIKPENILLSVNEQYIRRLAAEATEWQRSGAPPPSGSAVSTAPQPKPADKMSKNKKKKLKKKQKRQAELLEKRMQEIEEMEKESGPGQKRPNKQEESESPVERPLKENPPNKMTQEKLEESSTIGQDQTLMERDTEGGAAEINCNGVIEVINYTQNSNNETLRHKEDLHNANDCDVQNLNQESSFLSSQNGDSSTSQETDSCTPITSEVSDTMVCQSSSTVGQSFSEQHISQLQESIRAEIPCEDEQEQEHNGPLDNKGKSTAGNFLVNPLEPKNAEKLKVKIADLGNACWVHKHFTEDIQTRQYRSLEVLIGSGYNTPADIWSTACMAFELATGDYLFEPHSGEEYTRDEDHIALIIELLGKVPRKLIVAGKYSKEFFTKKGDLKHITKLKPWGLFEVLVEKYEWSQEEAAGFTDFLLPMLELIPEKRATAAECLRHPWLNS
Sequence of Mitogen-activated protein kinase 1 (P28482 whole entry): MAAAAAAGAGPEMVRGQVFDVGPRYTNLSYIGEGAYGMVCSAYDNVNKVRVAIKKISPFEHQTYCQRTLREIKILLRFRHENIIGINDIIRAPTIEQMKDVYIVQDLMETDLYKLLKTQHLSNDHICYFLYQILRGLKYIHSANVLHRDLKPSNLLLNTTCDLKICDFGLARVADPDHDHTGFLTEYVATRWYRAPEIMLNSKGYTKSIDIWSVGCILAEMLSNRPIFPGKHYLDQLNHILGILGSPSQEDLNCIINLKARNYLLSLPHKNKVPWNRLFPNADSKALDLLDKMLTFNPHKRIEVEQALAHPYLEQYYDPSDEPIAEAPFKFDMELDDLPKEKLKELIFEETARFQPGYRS
Sequence of cAMP-dependent protein kinase catalytic subunit PRKX (P51817 whole entry): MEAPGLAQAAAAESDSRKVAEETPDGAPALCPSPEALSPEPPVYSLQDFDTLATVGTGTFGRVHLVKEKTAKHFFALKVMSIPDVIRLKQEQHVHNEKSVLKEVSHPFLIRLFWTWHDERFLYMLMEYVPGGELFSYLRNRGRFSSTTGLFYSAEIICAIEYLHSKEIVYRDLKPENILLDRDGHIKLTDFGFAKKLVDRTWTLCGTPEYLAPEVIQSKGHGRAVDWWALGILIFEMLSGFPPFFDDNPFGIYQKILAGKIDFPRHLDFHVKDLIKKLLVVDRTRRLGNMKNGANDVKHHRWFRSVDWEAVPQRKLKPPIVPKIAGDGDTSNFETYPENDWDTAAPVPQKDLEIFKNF
Sequence of Cyclin-dependent kinase 8 (P49336 whole entry): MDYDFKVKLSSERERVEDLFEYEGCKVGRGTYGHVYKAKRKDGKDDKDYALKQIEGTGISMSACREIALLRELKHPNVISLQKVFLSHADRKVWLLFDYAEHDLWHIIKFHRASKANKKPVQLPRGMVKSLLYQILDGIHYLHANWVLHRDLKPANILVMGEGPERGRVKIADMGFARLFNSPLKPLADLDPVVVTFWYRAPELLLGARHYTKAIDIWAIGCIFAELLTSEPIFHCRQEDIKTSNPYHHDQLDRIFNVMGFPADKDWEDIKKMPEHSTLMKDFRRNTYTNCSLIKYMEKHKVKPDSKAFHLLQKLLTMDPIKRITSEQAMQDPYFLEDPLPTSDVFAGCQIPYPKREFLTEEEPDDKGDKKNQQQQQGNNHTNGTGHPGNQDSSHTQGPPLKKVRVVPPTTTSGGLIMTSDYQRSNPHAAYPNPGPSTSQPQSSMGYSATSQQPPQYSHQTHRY
Sequence of Tyrosine-protein kinase Fer (P16591 whole entry): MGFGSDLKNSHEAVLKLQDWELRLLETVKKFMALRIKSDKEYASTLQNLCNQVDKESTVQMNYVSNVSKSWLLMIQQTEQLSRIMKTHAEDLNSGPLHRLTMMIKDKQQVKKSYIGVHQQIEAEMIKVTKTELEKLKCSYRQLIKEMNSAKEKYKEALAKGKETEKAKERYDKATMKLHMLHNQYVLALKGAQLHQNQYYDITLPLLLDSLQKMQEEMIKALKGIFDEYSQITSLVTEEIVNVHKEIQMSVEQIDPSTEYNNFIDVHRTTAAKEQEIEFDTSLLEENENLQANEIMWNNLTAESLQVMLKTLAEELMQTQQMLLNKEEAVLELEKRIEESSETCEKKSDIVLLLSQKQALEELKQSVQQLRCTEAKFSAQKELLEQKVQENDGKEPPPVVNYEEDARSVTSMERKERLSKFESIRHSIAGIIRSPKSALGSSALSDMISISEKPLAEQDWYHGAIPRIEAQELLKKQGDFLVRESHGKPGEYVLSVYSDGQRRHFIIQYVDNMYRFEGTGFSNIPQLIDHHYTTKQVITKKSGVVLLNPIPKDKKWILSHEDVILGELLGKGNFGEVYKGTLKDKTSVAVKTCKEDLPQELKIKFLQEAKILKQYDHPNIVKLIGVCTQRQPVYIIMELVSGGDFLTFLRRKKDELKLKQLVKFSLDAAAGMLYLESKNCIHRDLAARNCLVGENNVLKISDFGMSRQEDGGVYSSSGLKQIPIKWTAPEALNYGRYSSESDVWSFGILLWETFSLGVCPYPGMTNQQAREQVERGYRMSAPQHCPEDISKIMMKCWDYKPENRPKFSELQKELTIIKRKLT
Sequence of 3-phosphoinositide-dependent protein kinase 1 (O15530 whole entry): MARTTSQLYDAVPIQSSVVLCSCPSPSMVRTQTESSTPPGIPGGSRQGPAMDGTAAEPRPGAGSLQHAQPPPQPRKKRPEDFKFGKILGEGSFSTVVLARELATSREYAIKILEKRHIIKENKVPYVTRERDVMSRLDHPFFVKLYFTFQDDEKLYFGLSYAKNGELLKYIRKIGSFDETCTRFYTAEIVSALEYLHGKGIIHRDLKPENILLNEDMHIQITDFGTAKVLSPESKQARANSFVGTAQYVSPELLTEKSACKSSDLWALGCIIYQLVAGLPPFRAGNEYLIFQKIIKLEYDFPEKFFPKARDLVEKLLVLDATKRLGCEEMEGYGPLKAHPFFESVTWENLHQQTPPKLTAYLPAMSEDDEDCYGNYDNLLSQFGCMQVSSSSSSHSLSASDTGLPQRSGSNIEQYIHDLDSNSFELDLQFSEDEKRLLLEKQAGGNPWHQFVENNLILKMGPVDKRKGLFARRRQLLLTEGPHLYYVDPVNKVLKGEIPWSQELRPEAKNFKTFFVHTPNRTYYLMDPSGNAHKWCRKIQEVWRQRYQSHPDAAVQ
Sequence of Serine/threonine-protein kinase D2 (Q9BZL6 whole entry): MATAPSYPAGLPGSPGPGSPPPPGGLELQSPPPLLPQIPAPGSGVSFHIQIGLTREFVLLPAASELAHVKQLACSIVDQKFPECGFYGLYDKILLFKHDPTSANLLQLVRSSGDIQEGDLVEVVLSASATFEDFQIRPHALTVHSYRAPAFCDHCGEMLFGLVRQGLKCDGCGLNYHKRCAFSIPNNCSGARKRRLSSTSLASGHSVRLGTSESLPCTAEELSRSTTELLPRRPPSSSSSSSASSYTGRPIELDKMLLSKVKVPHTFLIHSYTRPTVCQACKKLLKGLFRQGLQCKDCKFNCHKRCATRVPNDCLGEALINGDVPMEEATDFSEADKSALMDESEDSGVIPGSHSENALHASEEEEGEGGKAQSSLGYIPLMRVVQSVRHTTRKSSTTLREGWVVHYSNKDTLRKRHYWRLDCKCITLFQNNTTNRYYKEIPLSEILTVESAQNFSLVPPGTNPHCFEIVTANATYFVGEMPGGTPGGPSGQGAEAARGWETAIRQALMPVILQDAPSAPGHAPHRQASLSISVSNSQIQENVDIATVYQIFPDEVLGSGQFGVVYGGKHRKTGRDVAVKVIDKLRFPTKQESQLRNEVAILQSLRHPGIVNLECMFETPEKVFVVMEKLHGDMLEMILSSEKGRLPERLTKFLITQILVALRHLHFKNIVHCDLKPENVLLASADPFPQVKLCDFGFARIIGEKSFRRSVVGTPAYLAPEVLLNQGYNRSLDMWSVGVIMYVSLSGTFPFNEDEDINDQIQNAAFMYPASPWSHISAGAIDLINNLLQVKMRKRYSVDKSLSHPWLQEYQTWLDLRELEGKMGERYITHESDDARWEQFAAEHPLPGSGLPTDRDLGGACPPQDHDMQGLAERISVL
Sequence of Glycogen synthase kinase-3 alpha (P49840 whole entry): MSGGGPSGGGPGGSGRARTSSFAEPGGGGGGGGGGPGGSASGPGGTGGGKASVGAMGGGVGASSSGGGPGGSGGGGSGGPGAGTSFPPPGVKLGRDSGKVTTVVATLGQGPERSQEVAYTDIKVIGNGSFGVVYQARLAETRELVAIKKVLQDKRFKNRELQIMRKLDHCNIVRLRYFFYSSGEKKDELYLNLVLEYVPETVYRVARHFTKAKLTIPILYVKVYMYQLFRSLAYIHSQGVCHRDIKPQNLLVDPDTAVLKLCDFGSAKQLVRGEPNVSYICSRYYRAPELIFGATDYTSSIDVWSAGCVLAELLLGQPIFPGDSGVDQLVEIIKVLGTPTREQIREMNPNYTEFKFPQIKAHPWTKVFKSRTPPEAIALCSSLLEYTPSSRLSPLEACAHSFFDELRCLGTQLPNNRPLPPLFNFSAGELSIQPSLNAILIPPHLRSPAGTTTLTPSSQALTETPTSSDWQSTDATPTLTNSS

## O=C(COC(=O)c1ccc([N+](=O)[O-])s1)NCCc1ccccc1
[1]
  IC50: 3230 nM (active)

## CCOC(=O)c1c(NS(=O)(=O)c2ccccc2)n(CCCOC)c2nc3ccccc3nc12
Cells [2]
  EC50: > 350000 nM (not active)
Cells [3]
  EC50: > 350000 nM (not active)

## OC1CCC(Nc2cc(Cl)nc(-c3c[nH]c4ncccc34)n2)CC1 (stereo unspecified)
[4]
  Ki: 1580 nM (active)
[5]
  Ki: > 3160 nM (inactive)
[6]
  Ki: > 2510 nM (inactive)
[7]
  Ki: 316 nM (active)
SRSF protein kinase 1
  Ki: > 7940 nM (inactive)
[8]
  Ki: 1260 nM (active)
[9]
  Ki: 794 nM (active)
[10]
  Ki: 251 nM (active)
[11]
  Ki: 31.6 nM (active)
[12]
  Ki: 50.1 nM (active)
[13]
  Ki: > 5010 nM (inactive)
[14]
  Ki: 794 nM (active)
[15]
  Ki: 316 nM (active)
[16]
  Ki: 398 nM (active)
[17]
  Ki: 501 nM (active)
[18]
  Ki: > 794 nM (inactive)
[19]
  Ki: 50.1 nM (active)
[20]
  Ki: 501 nM (active)
[21]
  Ki: 126 nM (active)
[22]
  Ki: 63.1 nM (active)
[23]
  Ki: 251 nM (active)
[24]
  Ki: > 5010 nM (inactive)
[25]
  Ki: 200 nM (active)
[26]
  Ki: 1260 nM (active)
[27]
  Ki: 50.1 nM (active)

## COCC/N=c1\scc(-c2cccs2)n1/N=C/c1ccc(O)c(O)c1O
[28]
  EC50: > 11800 nM (not active)
[29]
  IC50: > 119000 nM (inactive)
[30]
  CC50: 16500 nM (active)
